From US11752162B2, “Compounds and compositions for treating solid tumors by intratumoral administration” (Novartis AG, priority 2017, dated 2023)
Each block holds one molecule with its values, some of them ahead of it.

What was measured:
[1] = Adsorption of compounds to aluminum hydroxide in histidine buffer (pH 6.8); type: physicochemical; conditions: histidine buffer pH 6.8, 0.1 mg/mL compound, 37° C. 5 hours
[2] = Pharmacokinetics and mass balance of aluminum and Compound 15 in male Wistar rats (Example 12); type: in vivo, rat; conditions: single i.v. dose equivalent to 0.2 mg of aluminum per animal
Procedure: The pharmacokinetics and mass balance of aluminum and Compound 15 were investigated following a single subcutaneous (s.c.) dose (1 mL) of Suspension H (Compound 15/Alhydrogel® at a 2:1 ratio of aluminum to Compound 15) in male Wistar rats. In addition, the pharmacokinetics of aluminum were investigated following a single intravenous (i.v.) dose (0.5 mL) of 0.4 mg/mL AlCl3.6H2O (equivalent to 0.2 mg of aluminum) in male Wistar rat. Additionally, a control group dosed subcutaneously with saline were evaluated for environmental background aluminum levels.
Metal free/trace metal grade containers/tubes/tips (<1 ng/g Al) were used for sample handling. Aluminum content was analyzed in serum and urine (Frontage Laboratories).
Approximately 0.3 to 0.5 mL of blood samples were collected from carotid artery cannulation at 0 (pre dose), 0.083 (IV only), 0.25 (IV only), 0.5, 3, 6, 24, 72, 168, 336, 504, 672 hours post dose.
Urine was collected from each animal for the following periods: 0 (24 h before dose), 0-24, 24-48, 48-72, 72-96, 96-168 hours post dose, then weekly up to 672 h. The urine samples were stored at −20° C. until analyzed. Feces were collected from each animal and samples were pooled per subject at the end of study at 672 h.
Compound 15 and aluminum levels were analyzed in the serum and urine samples obtained from the s.c. group whereas only aluminum levels were analyzed in the i.v. group.

MC38 tumors = assay: Contralateral MC38 colon cancer model, alone or with checkpoint inhibitors; type: in vivo, mouse; conditions: single agents; Compound 15 50 μg i.t. weekly x2, antibodies 10 mg/kg i.p. twice weekly
Procedure: MC38 cells were grown in sterile conditions in a 37° C. incubator with 5% CO2 for two weeks. The cells were cultured in Dulbecco's Modified Eagle's medium (DMEM) media supplemented with 10% FBS, cells were passed every 2-3 days. On the day of injection, cells were harvested (Passage 12) and re-suspended in Hanks' Balanced Salt Solution (HBSS) at a concentration of 2.5×10^6/ml. Cells were Radil tested for mycoplasma and murine viruses.
For each mouse, 0.25×10^6 cells were implanted with subcutaneously injection into right flank using a 28½ g needle ([…]). After the first implantation on day 3 (0.25×10^6) cells are implanted with a subcutaneous injection into left flank using a 28½ g needle (100 μL injection volume). Tumor sizes were assessed three times a week once tumors were palpable. Tumor sizes were determined by using caliper measurements, with tumor volumes calculated using the formula: (Length×Width×Width)/2.
Female C57BL/6 mice bearing the MC38 tumors were randomized into 7 groups (n=9 mice per group) 9 days post tumor cell implantation with an average tumor volume range of 69.09-142.25 mm^3, and the separate groups of tumor bearing mice received treatment as shown in Table 17.
The anti-tumor efficacy of Compound 15 adsorbed to aluminum hydroxide (Alhydrogel®) alone or in combination with checkpoint inhibitors, was determined using a contralateral MC38 colon cancer model. The tumor volume was obtained after two weekly intratumoral injections of Compound 15 adsorbed to aluminum hydroxide (50 μg each) either alone (Group 2), in a double combination with intraperitoneal injection (twice weekly) of an anti-PD-L1 antibody (10 mg/kg) (Group 5), in a double combination with intraperitoneal injection (twice weekly) of an anti-CTLA4 antibody (10 mg/kg) (Group 6), or in a triple combination with intraperitoneal injection (twice weekly) of an anti-PD-L1 antibody (10 mg/kg) and with intraperitoneal injection of an anti-CTLA4 antibody (10 mg/kg) (group 7). For comparison, data was obtained after an intraperitoneal injection (twice weekly) of the anti-PD-L1 antibody (10 mg/kg) alone (Group 3) and after an intraperitoneal injection (twice weekly) of the anti-CTLA4 antibody (10 mg/kg) alone (Group 4). The untreated control data was also obtained (Group 1).
The anti-tumor efficacy of Compound 15 alone (without aluminum hydroxide (Alhydrogel®)) or in combination with checkpoint inhibitors was determined using a contralateral MC38 colon cancer model. […] In addition, the anti-tumor efficacy of Compound 15 adsorbed to aluminum hydroxide (Alhydrogel®) alone or in a triple combination with checkpoint inhibitors was determined using a contralateral MC38 colon cancer model. […]

[3] = tested on: MC38 syngeneic colon cancer tumor model; assay: MC38 syngeneic colon cancer tumor model, tumor volume at injection site and distant site; type: in vivo, mice; conditions: One-Way ANOVA post hoc Tukey, difference from no treatment
Description: FIG. 10: A) Efficacy at the intratumor injection site following administration of Compound 15/aluminum hydroxide, an anti-PDL1 antibody or an anti-CTLA4 antibody as single agents or after the administration of combinations of Compound 15/aluminum hydroxide and an anti-PDL1 antibody and/or an anti-CTLA4 antibody.
The effect on tumor volume by administration of a compound of Formula (A), in the presence of aluminum-containing particles, with and without the administration of one or more checkpoint inhibitors is shown in Example 14.
Percent treatment/control (T/C) values for tumor were calculated using the following formula: % T/C=100×ΔT/ΔC if ΔT>0% % Regression=100×ΔT/Tinitial if ΔT<0 where: • T=mean tumor volume of the drug-treated group on the final day of the study; • ΔT=mean tumor volume of the drug-treated group on the final day of the study minus mean tumor volume of the drug-treated group on initial day of dosing; • Tinitial=mean tumor volume of the drug-treated group on initial day of dosing; • C=mean tumor volume of the control group on the final day of the study; • ΔC=mean tumor volume of the control group on the final day of the study minus mean tumor volume of the control group on initial day of dosing. All data were expressed as mean±standard error of the mean (SEM). Delta tumor volume

- % Bound [1]: 97.0%
Molecule: Cc1cc(OCCOCCOCCP(=O)(O)O)ccc1CCc1cnc2c(N)nc3cc(CCC(=O)O)ccc3c2c1 [Compound 20, 3-(5-amino-2-(2-methyl-4-(2-(2-(2-phosphonoethoxy)ethoxy)ethoxy)phenethyl)benzo[f][1,7]naphthyridin-8-yl)propanoic acid]

- % Bound [1]: 98.2%
Molecule: Cc1ccc2c(c1)nc(N)c1ncc(CCc3ccc(OCCOCCOCCC(F)(F)P(=O)(O)O)cc3C)cc12 [Compound 1, (3-(2-(2-(4-(2-(5-amino-8-methylbenzo[f][1,7]naphthyridin-2-yl)ethyl)-3-methylphenoxy)ethoxy)ethoxy)-1,1-difluoropropyl)phosphonic acid]

- AUClast of aluminum [2]: 67400 ng·h/mL
- mean Cmax of aluminum in serum [2]: 26000 ng/mL
- mean Tmax of aluminum [2]: 13.2 min
- mean recovery of aluminum in urine [2]: ~0.2 mg
Molecule: O.O.O.O.O.O.[Al+3].[Cl-].[Cl-].[Cl-] [AlCl3.6H2O]

Further lines, the molecule ahead of its results:

Molecule: Cc1cc(OCCOCCOCCC(F)(F)P(=O)(O)O)ccc1CCc1cnc2c(N)nc3cc(CCC(=O)O)ccc3c2c1 [Compound 18, 3-(5-amino-2-(4-(2-(2-(3,3-difluoro-3-phosphonopropoxy)ethoxy)ethoxy)-2-methylphenethyl)benzo[f][1,7]naphthyridin-8-yl)propanoic acid]
- % Bound [1]: 96.2%

Molecule: Cc1cc(OCCCC(F)(F)P(=O)(O)O)ccc1CCc1cnc2c(N)nc3cc(CCC(=O)O)ccc3c2c1 [Compound 17, 3-(5-amino-2-(4-(4,4-difluoro-4-phosphonobutoxy)-2-methylphenethyl)benzo[f][1,7]naphthyridin-8-yl)propanoic acid]
- % Bound [1]: 94.5%

B1: anti-PD-L1: Anti-PD-L1 antibody BAP058-hum13 with heavy chain variable domain of SEQ ID NO:7 and light chain variable domain of SEQ ID NO:17 (antibody, V domains shown)
VH: EVQLVQSGAEVKKPGATVKISCKVSGYTFTSYWMYWVRQARGQRLEWIGRIDPNSGSTKYNEKFKNRFTISRDNSKNTLYLQMNSLRAEDTAVYYCARDYRKGLYAMDYWGQGTTVTVSS
VL: AIQLTQSPSSLSASVGDRVTITCKASQDVGTAVAWYLQKPGQSPQLLIYWASTRHTGVPSRFSGSGSGTDFTFTISSLEAEDAATYYCQQYNSYPLTFGQGTKVEIK
- % T/C at the contralateral tumor site (MC38 tumors): 27.02%
- % T/C at the primary injection site (MC38 tumors): 56.22%

B2: Anti PD-L1: anti-PDL1 antibody, inhibitor of the PD-L1 ligand, used as single agent or combination partner (antibody, V domains shown)
VH: B1 VH
VL: B1 VL
- Efficacy at a site distant from the injection site (distant site tumor) ([3]; post implant day 19, N=9 per group): significantly different
- Efficacy at the intratumor injection site (treated site tumor) ([3]; post implant day 22, N=9 per group): significantly different
